Literature values in patent publication US7881871B2, “Method for designing surfaces” (Bio-Layer Pty Limited, priority 2003, dated 2011).
Like-named read-outs stand apart in the source and are kept apart here.

How the values were obtained:
[1] = system: monoclonal antibodies (IgG subclasses)

## Protein G: 30,000 to 35,000 dalton protein isolated from the cell wall of beta-hemolytic Streptococci
Antibodies (Fc fragment); chicken antibodies
  affinity for antibodies: low affinity
Antibodies (Fc fragment); human, horse, cow, pig and rabbit antibodies
  affinity for antibodies: high affinity
Antibodies (Fc fragment); sheep, goat, hamster, guinea pig, rat and mouse antibodies
  affinity for antibodies: moderate affinity
[1]; human IgG1, IgG2, IgG3 and IgG4, mouse IgG1, IgG2a, IgG2b and IgG3, rat IgG2a
  affinity for monoclonal antibodies: high affinity
[1]; rat IgG1, IgG2b and IgG2c
  affinity for monoclonal antibodies: moderate or low affinity

## Protein A: 42,000 dalton cell-wall-associated protein of S. Aureus with IgG binding activity
Antibodies (Fc fragment); horse, cow and mouse antibodies
  affinity for antibodies: moderate affinity
Antibodies (Fc fragment); human, pig, rabbit and guinea pig antibodies
  affinity for antibodies: high affinity
Antibodies (Fc fragment); sheep, goat, chicken, hamster and rat antibodies
  affinity for antibodies: low or no affinity
[1]; human IgG1, IgG2, IgG3, mouse IgG2a and IgG2b
  affinity for monoclonal antibodies: high affinity
[1]; human IgG1, rat IgG1, IgG2a and IgG2b
  affinity for monoclonal antibodies: no affinity
[1]; mouse IgG1 and IgG3, rat IgG2c
  affinity for monoclonal antibodies: moderate or low affinity
